According to patent publication US7605165B2, “Phenylalanine derivatives” (Ajinomoto Co., Inc., priority 2002, dated 2009):

How the values were obtained:
integrin α4β1 = molecular target: T1, integrin α4β1 (Homo sapiens, UniProt P05556+P13612); experiment: Assessment of VCAM-1/α4β1 binding antagonist activity (Jurkat cells binding to VCAM-1); assay type: cell-based; conditions: Jurkat human T cells binding to recombinant human VCAM-1; read-out: integrin VCAM/α4 binding antagonistic activity (IC50) α4β1
T1 construct: cell strain Jurkat (ATCC TIB-152) of human T cells, known to express integrin α4β1; endogenous in cells; host or cells: Jurkat (ATCC TIB-152), human T cells
T1 sequence (P05556 21-798, one chain of several): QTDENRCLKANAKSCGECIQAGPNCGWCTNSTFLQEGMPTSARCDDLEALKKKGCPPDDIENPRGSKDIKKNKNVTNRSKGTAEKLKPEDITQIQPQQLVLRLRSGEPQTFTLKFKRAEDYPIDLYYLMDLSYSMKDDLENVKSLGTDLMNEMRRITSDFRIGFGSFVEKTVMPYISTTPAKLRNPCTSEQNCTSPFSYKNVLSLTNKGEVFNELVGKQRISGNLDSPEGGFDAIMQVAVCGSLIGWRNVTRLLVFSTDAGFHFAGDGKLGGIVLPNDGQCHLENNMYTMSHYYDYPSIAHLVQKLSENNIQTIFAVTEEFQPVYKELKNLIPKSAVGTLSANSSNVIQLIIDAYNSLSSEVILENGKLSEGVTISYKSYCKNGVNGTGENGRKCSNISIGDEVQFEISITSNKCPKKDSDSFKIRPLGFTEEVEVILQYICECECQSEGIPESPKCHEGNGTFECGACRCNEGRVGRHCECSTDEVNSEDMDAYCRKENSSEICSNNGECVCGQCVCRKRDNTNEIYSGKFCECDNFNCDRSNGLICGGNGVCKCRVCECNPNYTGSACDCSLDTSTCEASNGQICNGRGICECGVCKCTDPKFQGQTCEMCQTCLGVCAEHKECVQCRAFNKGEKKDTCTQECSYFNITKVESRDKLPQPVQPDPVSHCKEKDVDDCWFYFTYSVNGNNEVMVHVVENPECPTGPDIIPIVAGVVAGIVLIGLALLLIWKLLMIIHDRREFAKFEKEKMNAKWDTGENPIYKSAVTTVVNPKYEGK
Description: The capacity of a test substance antagonistic to the binding of cell strain Jurkat (ATCC TIB-152) of human T cells, known to express integrin α4β1, to VCAM-1 was determined.
(§1) 100 μl/well of a solution (500 ng/ml) of recombinant human VCAM-1 (R & D systems) solution diluted with buffer A (0.1 M NaHCO3, pH 9.6) was added to a micro titer plate having 96 wells (Nunc Maxisorp). After the incubation at 4° C. overnight, unbound VCAM-1 was removed by washing once with PBS. After completion of the washing, a buffer (buffer B) obtained by diluting Block Ace (Dainippon Pharmaceutical Co., Ltd.) with PBS to 1/4 concentration was added in an amount of 150 μl/well. After the incubation at room temperature for 1 hour, buffer B was removed and the plate was washed with PBS once.
Jurkat cells were washed with Dulbecco modified Eagle medium (SIGMA, hereinafter referred to as “DMEM”) twice and then incubated in DMEM containing 10 μg/ml of Calcein-AM (Wako Pure Chemical Industries, Ltd.) at 37° C. in dark place for 30 minutes to label with fluorescence. The cells were again suspended in a binding buffer (20 mM HEPES, DMEM containing 0.1% BSA).
(§2) 50 μl of a test substance of various concentrations obtained by the dilution with the binding buffer was added to the plate. Immediately thereafter, 50 μl (final volume: 100 μl/well) of the fluorescent Jurkat cells (4×10^6 cells/ml) were added thereto, and they were incubated in dark place at room temperature for 30 minutes. After the shaking on a plate shaker (IKA MTS-4) at 800 rpm for 30 seconds, the solution was immediately removed to remove the unbound cells. The fluorescence quantity of the bound cells remaining in the wells was determined with a fluorescent plate reader (Wallac 1420 ARVO multi-label counter) (filter excitation wave length: 485 nm, emission wave length: 535 nm). The fluorescent strength thus obtained is proportional to the number of Jurkat cells bound to VCAM-1 and remaining on the plate. The binding rate of each test material in various concentrations was determined while the fluorescent strength of the test material-free well was determined to be 100%.

integrin α4β7 = molecular target: T2, integrin α4β7 (Homo sapiens, UniProt P13612+P26010); experiment: Assessment of VCAM-1/α4β7 binding antagonistic activity (RPMI-8866 cells binding to VCAM-1); assay type: cell-based; conditions: RPMI-8866 human B lymphoma cells binding to recombinant human VCAM-1, binding buffer with 4 mM MnCl2; read-out: integrin VCAM/α4 binding antagonistic activity (IC50) α4β7
T2 construct: lymphoma cell strain RPMI-8866 of human B cells, known to express integrin α4β7; endogenous in cells; host or cells: RPMI-8866, human B-cell lymphoma line
T2 sequence (P13612 34-1032): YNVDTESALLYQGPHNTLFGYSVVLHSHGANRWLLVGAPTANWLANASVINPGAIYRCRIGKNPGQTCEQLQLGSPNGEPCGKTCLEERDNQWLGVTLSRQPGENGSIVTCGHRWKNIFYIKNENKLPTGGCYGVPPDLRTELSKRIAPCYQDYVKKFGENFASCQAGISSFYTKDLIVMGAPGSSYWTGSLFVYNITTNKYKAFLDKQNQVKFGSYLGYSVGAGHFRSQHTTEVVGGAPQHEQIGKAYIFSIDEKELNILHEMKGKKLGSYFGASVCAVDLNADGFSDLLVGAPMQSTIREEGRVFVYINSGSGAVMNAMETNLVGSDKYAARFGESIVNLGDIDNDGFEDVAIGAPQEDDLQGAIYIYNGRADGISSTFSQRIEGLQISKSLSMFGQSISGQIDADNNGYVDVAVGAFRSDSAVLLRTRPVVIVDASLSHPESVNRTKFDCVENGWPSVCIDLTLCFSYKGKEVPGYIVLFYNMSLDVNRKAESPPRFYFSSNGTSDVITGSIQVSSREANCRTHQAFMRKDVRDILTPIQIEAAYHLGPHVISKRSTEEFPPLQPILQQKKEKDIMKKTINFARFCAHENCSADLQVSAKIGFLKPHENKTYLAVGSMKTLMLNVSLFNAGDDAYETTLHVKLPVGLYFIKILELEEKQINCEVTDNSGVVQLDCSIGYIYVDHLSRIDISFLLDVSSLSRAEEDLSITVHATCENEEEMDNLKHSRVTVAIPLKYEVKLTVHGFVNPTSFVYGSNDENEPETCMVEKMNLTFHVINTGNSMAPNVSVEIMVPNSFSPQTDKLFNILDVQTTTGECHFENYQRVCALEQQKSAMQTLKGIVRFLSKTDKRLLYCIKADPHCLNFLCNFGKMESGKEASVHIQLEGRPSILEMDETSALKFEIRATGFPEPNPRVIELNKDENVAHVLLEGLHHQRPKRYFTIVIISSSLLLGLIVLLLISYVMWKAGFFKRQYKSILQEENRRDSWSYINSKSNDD
T2 sequence (P26010 20-798): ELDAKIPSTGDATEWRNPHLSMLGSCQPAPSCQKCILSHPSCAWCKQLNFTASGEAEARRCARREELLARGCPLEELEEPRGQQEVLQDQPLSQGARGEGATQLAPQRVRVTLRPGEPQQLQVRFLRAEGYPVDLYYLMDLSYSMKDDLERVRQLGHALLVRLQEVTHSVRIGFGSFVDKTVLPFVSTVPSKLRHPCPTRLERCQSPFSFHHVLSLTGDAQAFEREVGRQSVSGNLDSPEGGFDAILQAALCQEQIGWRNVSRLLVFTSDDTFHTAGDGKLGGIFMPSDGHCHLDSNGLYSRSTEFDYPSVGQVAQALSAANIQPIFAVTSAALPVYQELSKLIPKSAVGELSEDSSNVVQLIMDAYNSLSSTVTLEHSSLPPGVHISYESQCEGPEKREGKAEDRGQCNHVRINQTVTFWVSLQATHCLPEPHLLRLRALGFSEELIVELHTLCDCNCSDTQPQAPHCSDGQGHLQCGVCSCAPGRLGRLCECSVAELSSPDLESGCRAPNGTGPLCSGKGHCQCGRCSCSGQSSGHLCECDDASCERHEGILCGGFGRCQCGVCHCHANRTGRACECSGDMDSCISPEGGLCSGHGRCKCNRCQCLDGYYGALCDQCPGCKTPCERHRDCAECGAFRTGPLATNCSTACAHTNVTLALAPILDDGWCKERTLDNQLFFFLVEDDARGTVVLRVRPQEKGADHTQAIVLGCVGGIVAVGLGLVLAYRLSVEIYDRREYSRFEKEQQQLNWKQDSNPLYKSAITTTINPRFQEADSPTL
Description: The capacity of a test substance antagonistic to the binding of lymphoma cell strain RPMI-8866 of human B cells, known to express integrin α4β7, to VCAM-1 was determined.
as §1
RPMI-8866 cells were washed with DMEM twice and incubated in Dulbecco modified Eagle medium containing 10 μg/ml of Calcein-AM (Wako Pure Chemical Industries, Ltd.) (SIGMA, hereinafter referred to as “DMEM”) in dark place at 37° C. for 30 minutes to label with fluorescence. The cells were again suspended in a binding buffer (20 mM HEPES, DMEM containing 0.1% BSA) containing 4 mM of MnCl2.
as §2, with “RPMI-8866” for “Jurkat”

SMILES	IC50 (integrin α4β1) [nM]	IC50 (integrin α4β7) [nM]
COc1ccc2nnn(-c3ccc(C[C@H](NC(=O)c4c(Cl)cccc4Cl)C(=O)O)cc3)c(=O)c2c1 [Reference Example 84]	158	20
CN(C)c1ccc2c(c1)c(=O)n(-c1ccc(C[C@H](NC(=O)c3c(Cl)cccc3Cl)C(=O)O)cc1)c(=O)n2C [Reference Example 108]	57	3.3
Cn1c(=O)n(-c2ccc(C[C@H](NC(=O)c3c(Cl)cccc3Cl)C(=O)O)cc2)c(=O)c2cc([N+](C)(C)C)ccc21 [Reference Example 112]	37	1.1
O=C(N[C@@H](Cc1ccc(-n2c(=O)c3ccccc3n(Cc3c(F)cccc3F)c2=O)cc1)C(=O)O)c1c(Cl)cccc1Cl [Example 4]	26	2.8
O=C(N[C@@H](Cc1ccc(-n2c(=O)[nH]c3cc(F)ccc3c2=O)cc1)C(=O)O)c1c(Cl)cccc1Cl [compound 78]	180	9.6
Cn1c(=O)n(-c2ccc(C[C@H](NC(=O)c3c(Cl)cccc3Cl)C(=O)NO)cc2)c(=O)c2ccccc21 [Reference Example 211]	250	20

More lines, now with the values ahead:

IC50 (integrin α4β1) [nM]	IC50 (integrin α4β7) [nM]	SMILES
450	35	O=C(N[C@@H](Cc1ccc(-n2c(=O)c3ccccc3n(Cc3ccc(Cl)cc3Cl)c2=O)cc1)C(=O)O)c1c(Cl)cccc1Cl [compound 116]
12	2	COc1ccc2c(c1)N(C)C(=O)N(c1ccc(C[C@H](NC(=O)c3c(Cl)cccc3Cl)C(=O)O)cc1)S2(=O)=O [compound 99]
6	0.5	Cn1c(=O)n(-c2ccc(C[C@H](NC(=O)c3c(Cl)cncc3Cl)C(=O)O)cc2)c(=O)c2ccccc21 [compound 169]
500	24	Cc1ccccc1Cn1c(=O)n(-c2ccc(C[C@H](NC(=O)c3c(Cl)cccc3Cl)C(=O)O)cc2)c(=O)c2ccccc21 [compound 120]
